Experimental data published in US8809333B2, “Imidazole, pyrazole, and triazole derivatives useful as antibacterial agents” (Pfizer Inc., priority 2011, dated 2014).
Converted amounts (≈) assume the structure as drawn. Like-named read-outs stand apart in the source and are kept apart here.

Columns and labels:
[1] = system: Klebsiella pneumoniae: Ciprofloxacin-resistant isolate, expresses ESBL, clinical isolate (KP-3700); test: MIC determination (CLSI), KP-3700; format: cell-based; conditions: overnight incubation, lower of duplicate values
Procedure: (§1) The in vitro antibacterial activity of compounds described in the Examples was evaluated by minimum inhibitory concentration (MIC) testing according to Clinical and Laboratory Standards Institute (CLSI) Guidelines. See: Clinical and Laboratory Standards Institute. Methods for Dilution Antimicrobial Susceptibility Tests for Bacteria that Grow Aerobically; Approved Standard-Eighth Edition. CLSI document M7-A8 [ISBN 1-56238-689-1]. Clinical and Laboratory Standards Institute, 940 West Valley Road, Suite 1400, Wayne, Pa. 19087-1898 USA, 2006; also Clinical and Laboratory Standards Institute. Performance Standards for Antimicrobial Susceptibility Testing; Twentieth Informational Supplement. CLSI document M100-S20 [ISBN1-56238-716-2]. Clinical and Laboratory Standards Institute.
(§2) The MIC determination is a standard laboratory method for evaluating the antibacterial activity of a compound. The MIC represents the lowest drug concentration that inhibits visible growth of bacteria following overnight incubation. […] Typically, the drug concentration range is broken down into 2-fold increments (e.g. 0.06 μg/mL, 0.12 μg/mL. 0.25 μg/mL, 0.50 μg/mL, 1.0 μg/mL, etc.) and the various drug concentrations are all individually incubated overnight with approximately the same number of bacteria. The MIC is then determined by visually inspecting the drug effect at each concentration, and identifying the lowest drug concentration that has inhibited bacterial growth as compared to the drug free control. Typically, bacteria continue to grow at drug concentrations lower than the MIC and don't grow at concentrations at and above the MIC.
(§3) The MIC values described in Tables 2 and 3 below were derived from assays wherein each test compound was evaluated in duplicate. In cases where the duplicate values varied by 0-2-fold, the lower of the two values was reported below. Generally speaking, if the duplicate values varied by more than 2-fold, the assay was considered non-valid and was repeated until the variation between duplicate runs was ≦2-fold. In line with the CLSI guidelines referred to above, both control organisms and reference compounds were utilized in each MIC assay to provide proper quality control. MIC values generated with these control organisms and reference compounds were required to fall within a defined range for the assay to be considered valid and be included herein. Those skilled in the art will recognize that MIC values can and do vary from experiment to experiment. Generally speaking, it should be recognized that MIC values often vary +/−2-fold from experiment to experiment. While a single MIC is reported for each compound and each microorganism, the reader should not conclude that each compound was only tested once. Several of the compounds were subjected to multiple tests. The data reported in Tables 2 and 3 is reflective of the compounds relative activity and different MICs may have been generated on these occasions in line with the guidelines described above.
(§4) The following bacterial strains were used in these MIC determinations:
(3) Klebsiella pneumoniae: Ciprofloxacin-resistant isolate, expresses extended-spectrum beta-lactamases (ESBL), clinical isolate, labeled as KP-3700 in Table 5.

[2] = system: Pseudomonas aeruginosa UI-18: Wild-type (PA-7); test: MIC determination (CLSI), PA-7; format: cell-based; conditions: Pseudomonas aeruginosa UI-18 wild-type; overnight incubation; lower of duplicate values; read-out: PA-7 (MIC)
Procedure: as §1, §2, §3, §4
(4) Pseudomonas aeruginosa UI-18: Wild-type, labeled as PA-7 in Table 5;

[3] = system: Escherichia coli EC-1: VOGEL, mouse virulent; test: MIC determination (CLSI), EC-1; format: cell-based; conditions: Escherichia coli, read-out: EC-1 (MIC)
Procedure: as §1, §2, §3, §4
(2) Escherichia coli EC-1: VOGEL, mouse virulent labeled as EC-1 in Table 5;

[4] = system: Acinetobacter baumannii/haemolyticus: Multidrug-resistant clinical isolate (AB-3167); test: MIC determination (CLSI), AB-3167; format: cell-based; conditions: Acinetobacter baumannii/haemolyticus multidrug-resistant clinical isolate; overnight incubation; lower of duplicate values; read-out: AB-3167 (MIC)
Procedure: as §1, §2, §3, §4
(1) Acinetobacter baumannii/haemolyticus: Multidrug-resistant clinical isolate labeled as AB-3167 in Table 5;

[5] = target: T1, Pseudomonas aeruginosa LpxC enzyme (Pseudomonas aeruginosa, UniProt P47205); test: IC50 assay, LpxC enzyme from P. aeruginosa (BioTrove RapidFire mass spectrometry); format: biochemical
T1 construct: made in house; host or cells: E. coli
T1 sequence (P47205 1-303): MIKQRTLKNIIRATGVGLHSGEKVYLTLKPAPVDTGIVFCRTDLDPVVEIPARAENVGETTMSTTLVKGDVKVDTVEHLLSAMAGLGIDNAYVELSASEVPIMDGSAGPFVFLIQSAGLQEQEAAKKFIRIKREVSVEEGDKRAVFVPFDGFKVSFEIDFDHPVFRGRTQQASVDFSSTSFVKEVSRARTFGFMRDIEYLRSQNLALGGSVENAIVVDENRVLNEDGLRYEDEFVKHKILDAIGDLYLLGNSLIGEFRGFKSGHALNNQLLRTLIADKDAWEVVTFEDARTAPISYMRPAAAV
Procedure: In order to assess the compounds biological activity, selected in-vitro assays were conducted on selected compounds of Formula I. One of the assays measured the compounds ability to disrupt the synthesis of lipopolysaccharide, LPS, which is a component of the outer membrane of Gram-negative bacteria. Disruption of this synthesis is lethal to the bacteria. The assay determined the compound's ability to inhibit LpxC, which is the first enzyme in the biosynthetic pathway for LPS (measured as IC50). Additionally, MICs (minimal inhibitory concentrations) were determined for several bacteria. The specific protocols are described below:
A) IC50 Assay, LpxC Enzyme from P. Aeruginosa Labeled as PA LpxC Enzyme IC50):
At the end of 1 hour, 5 ul of 1 N HCl was added to stop the enzyme reaction, the plates were centrifuged, and then processed with the BioTrove Rapidfire HTMS Mass Spectrometry System. A no-enzyme control was used in calculating the IC50 values from the percent conversion values.

[6] = P. aeruginosa LpxC enzyme 0.1 nM, 25° C., 1 hour, pH 8.0, read-out: PA: IC50

Row | SMILES | KP-3700 (MIC) [1] | MIC [2] | MIC [3] | MIC [4] | IC50 [5, 6] | IC50 [5]
1 | CC(CCn1cc(COc2ccc3ccccc3c2)nn1)(C(=O)NO)S(C)(=O)=O (centres unmarked) [Example 30, N-hydroxy-2-methyl-2-(methylsulfonyl)-4-{4-[(naphthalen-2-yloxy)methyl]-1H-1,2,3-triazol-1-yl}butanamide] | >64.0 µg/mL | 32 µg/mL (≈ 76.5 µM) | > 64 µg/mL | > 64 µg/mL | 3.76 nM | 
2 | CC(CCn1cc(-c2cccc(O)c2)cn1)(C(=O)NO)S(C)(=O)=O (centres unmarked) [Example 44, N-hydroxy-4-[4-(3-hydroxyphenyl)-1H-pyrazol-1-yl]-2-methyl-2-(methylsulfonyl)butanamide] | >64.0 µg/mL | > 64 µg/mL | > 64 µg/mL | > 64 µg/mL | 21.1 nM | 
3 | Cc1nccc(-c2ccc(-c3cnn(CCC(C)(C(=O)NO)S(C)(=O)=O)c3)cc2)n1 (centres unmarked) [Example 92, N-hydroxy-2-methyl-4-{4-[4-(2-methylpyrimidin-4-yl)phenyl]-1H-pyrazol-1-yl}-2-(methylsulfonyl)butanamide] | >64.0 µg/mL | 32 µg/mL (≈ 74.5 µM) | 32 µg/mL (≈ 74.5 µM) | > 64 µg/mL | 5.49 nM | 
4 | CC(CCn1cc(-c2ccc(-c3ccno3)cc2)cn1)(C(=O)NO)S(C)(=O)=O (centres unmarked) [Example 73, N-hydroxy-2-methyl-2-(methylsulfonyl)-4-{4-[4-(1,2-oxazol-5-yl)phenyl]-1H-pyrazol-1-yl}butanamide] | 16 µg/mL | 2 µg/mL (≈ 4.95 µM) | 4 µg/mL (≈ 9.89 µM) | > 64 µg/mL | 0.35 nM | 
5 | CC(CCn1cc(-c2ccc(F)c(C#N)c2)cn1)(C(=O)NO)S(C)(=O)=O (centres unmarked) [Example 59, 4-[4-(3-cyano-4-fluorophenyl)-1H-pyrazol-1-yl]-N-hydroxy-2-methyl-2-(methylsulfonyl)butanamide] | >64.0 µg/mL | 64 µg/mL (≈ 168 µM) | > 64 µg/mL | > 64 µg/mL | 11.6 nM | 
6 | COc1ccc(-c2cnn(CCC(C)(C(=O)NO)S(C)(=O)=O)c2)cc1OC (centres unmarked) [Example 65, 4-[4-(3,4-dimethoxyphenyl)-1H-pyrazol-1-yl]-N-hydroxy-2-methyl-2-(methylsulfonyl)butanamide] | >64.0 µg/mL | > 64 µg/mL | > 64 µg/mL | > 64 µg/mL | 93.2 nM | 
7 | CC(CCn1cc(-c2ccc3nc(N)sc3c2)cn1)(C(=O)NO)S(C)(=O)=O (centres unmarked) [Example 80, 4-[4-(2-amino-1,3-benzothiazol-6-yl)-1H-pyrazol-1-yl]-N-hydroxy-2-methyl-2-(methylsulfonyl)butanamide] | >64.0 µg/mL | > 64 µg/mL | > 64 µg/mL | > 64 µg/mL | 75.8 nM | 
8 | C[C@@](CCn1cc(-c2ccc(F)c(F)c2)nn1)(C(=O)NO)S(C)(=O)=O [Example 20, (2R)-4-[4-(3,4-difluorophenyl)-1H-1,2,3-triazol-1-yl]-N-hydroxy-2-methyl-2-(methylsulfonyl)butanamide] | >64.0 µg/mL | 4 µg/mL (≈ 10.7 µM) | 32 µg/mL (≈ 85.5 µM) | > 64 µg/mL |  | 1.87 nM
9 | C[C@@](CCn1cc(-c2ccc(Cl)c(F)c2)nn1)(C(=O)NO)S(C)(=O)=O [Example 23, (2R)-4-[4-(4-chloro-3-fluorophenyl)-1H-1,2,3-triazol-1-yl]-N-hydroxy-2-methyl-2-(methylsulfonyl)butanamide] | 64 µg/mL | 2 µg/mL (≈ 5.12 µM) | 8 µg/mL (≈ 20.5 µM) | > 64 µg/mL |  | 0.912 nM
10 | Cc1ccccc1-c1cnn(CCC(C)(C(=O)NO)S(C)(=O)=O)c1 (centres unmarked) [Example 43, N-hydroxy-2-methyl-4-[4-(2-methylphenyl)-1H-pyrazol-1-yl]-2-(methylsulfonyl)butanamide] | >64.0 µg/mL | 16 µg/mL (≈ 45.5 µM) | 32 µg/mL (≈ 91.1 µM) | > 64 µg/mL | 11.3 nM | 
11 | CC(CCn1cc(-c2cccc(-c3ccno3)c2)cn1)(C(=O)NO)S(C)(=O)=O (centres unmarked) [Example 74, N-hydroxy-2-methyl-2-(methylsulfonyl)-4-{4-[3-(1,2-oxazol-5-yl)phenyl]-1H-pyrazol-1-yl}butanamide] | >64.0 µg/mL | 32 µg/mL (≈ 79.1 µM) | > 64 µg/mL | > 64 µg/mL | 2.45 nM | 
12 | CC(CCn1cc(-c2ccc3cc[nH]c3n2)cn1)(C(=O)NO)S(C)(=O)=O (centres unmarked) [Example 57, N-hydroxy-2-methyl-2-(methylsulfonyl)-4-[4-(1H-pyrrolo[2,3-b]pyridin-6-yl)-1H-pyrazol-1-yl]butanamide] | >64.0 µg/mL | 64 µg/mL (≈ 170 µM) | > 64 µg/mL | > 64 µg/mL | 3.72 nM | 
13 | CC(CCn1cc(-c2ccc3c(c2)C(=O)CCC3)cn1)(C(=O)NO)S(C)(=O)=O (centres unmarked) [Example 75, N-hydroxy-2-methyl-2-(methylsulfonyl)-4-[4-(8-oxo-5,6,7,8-tetrahydronaphthalen-2-yl)-1H-pyrazol-1-yl]butanamide] | >64.0 µg/mL | 64 µg/mL (≈ 158 µM) | > 64 µg/mL | > 64 µg/mL | 7.17 nM | 
14 | COc1ccc(-c2cnn(CCC(C)(C(=O)NO)S(C)(=O)=O)c2)cc1F (centres unmarked) [Example 60, 4-[4-(3-fluoro-4-methoxyphenyl)-1H-pyrazol-1-yl]-N-hydroxy-2-methyl-2-(methylsulfonyl)butanamide] | >64.0 µg/mL | 8 µg/mL (≈ 20.8 µM) | 64 µg/mL (≈ 166 µM) | > 64 µg/mL | 20.1 nM | 
15 | CC(CCn1cc(-c2cccc(OC(F)F)c2)cn1)(C(=O)NO)S(C)(=O)=O (centres unmarked) [Example 68, 4-{4-[3-(difluoromethoxy)phenyl]-1H-pyrazol-1-yl}-N-hydroxy-2-methyl-2-(methylsulfonyl)butanamide] | >64.0 µg/mL | 8 µg/mL (≈ 19.8 µM) | 64 µg/mL (≈ 159 µM) | > 64 µg/mL | 2.1 nM | 
16 | CC(CCn1cc(-c2ccc(C3(C#N)CC3)cc2)cn1)(C(=O)NO)S(C)(=O)=O (centres unmarked) [Example 66, 4-{4-[4-(1-cyanocyclopropyl)phenyl]-1H-pyrazol-1-yl}-N-hydroxy-2-methyl-2-(methylsulfonyl)butanamide] | >64.0 µg/mL | 16 µg/mL (≈ 39.8 µM) | > 64 µg/mL | > 64 µg/mL | 2.83 nM | 
